Experimental data as given in paper PMC9283466, “In silico identification of two peptides with antibacterial activity against multidrug-resistant Staphylococcus aureus” (NPJ Biofilms and Microbiomes, 2022).
≈ marks a conversion by molar mass, not a printed value. Bridge positions count the residues as written; N and C are the ends. Peptide text beside a SMILES is read from it.

Tests used:
[1] = Peptide-lipid interaction and insertion, lipid monolayer; format: binding, human; settings: Erythrocyte extract; initial surface pressure 30+/-0.5 mN/m
Protocol: (§1) Peptide–lipid interaction was measured using a lipid monolayer formed at the air:water interface with total lipid extracts and pure lipids. Total lipids were extracted from overnight cultures of MRSA or human erythrocytes using the Folch extraction procedure[14],[40]. Extracted total lipids were dried, re-solubilised in chloroform:methanol (2:1, v/v) and stored at −20 °C under nitrogen. […] The variation of the surface pressure caused by peptide insertion was then continuously monitored using a fully automated microtensiometer (µTROUGH SX, Kibron Inc, Finland) until it reached equilibrium (maximal surface pressure increase is usually obtained after 15–25 min). […] In other experiments, the critical pressure of insertion of HG2 or HG4 in the total lipid extracts and pure lipids was measured as follows[14],[56]. Briefly, in these experiments, the initial pressure of the lipid monolayer was set up at different values (between 10 and 30 mN/m) and the variation of pressure caused by the injection of the peptide was measured. […] All experiments were carried out in a controlled atmosphere at 20 ± 1 °C and data were analyzed using the Firmware 2.5 programme (Kibron Inc.). The accuracy of the system under our experimental conditions was determined to be ±0.25 mN/m for surface pressure measurements.

[2] = test system: S. aureus USA300 BAA-1717; test: microbe, parasite or virus in culture; format: cell-based, Staphylococcus aureus; settings: USA300
Protocol: (§2) To determine the antimicrobial activity of the new antimicrobial peptides, HG2 and HG4, their minimum inhibitory concentrations (MICs) were determined by broth microdilution method[51] in cation adjusted Mueller Hinton broth (MHB) following the International Organisation for Standardisation (ISO) 20776-1 standard for MIC testing using a final bacterial inoculum of 5 × 10^5 CFU/ml[52]. […] The peptides dissolved in sterile distilled water were added to bacteria culture and incubated overnight at appropriate conditions. The MICs of the peptides and comparator antibiotics were recorded after 18–24 h. The minimum bactericidal concentrations (MBCs) were also determined and were taken as the lowest concentration of the antimicrobial that prevented the growth of bacterial cells after the subculture of cells (from MIC treatment) onto antibiotic-free media.

[3] = test system: S. aureus EMRSA-15; test: microbe, parasite or virus in culture; format: cell-based, Staphylococcus aureus; settings: EMRSA-15
Protocol: as §2

[4] = test system: S. aureus ATCC 33591; test: microbe, parasite or virus in culture; format: cell-based, Staphylococcus aureus; settings: ATCC 33591
Protocol: as §2

[5] = test system: eLUCidate Raw 264.7 NF-kB reporter cell line
[6] = test system: MRSA USA300 cells; test: Serial passage / resistance assay; format: cell-based, Staphylococcus aureus; settings: for fold increase in MIC during serial passage: sub-MIC exposure over 20 days, MRSA USA300; for resistant mutants after serial passage: sub-lethal doses over a period of 20 days
Protocol: In vitro evaluation of the potential for MRSA USA3000 cells to develop resistance to HG2 and HG4 was performed as follows. […] Cultures from the highest concentration that supported growth were diluted 1: 1000 in MHB and used to provide the inoculum for the next passage day. This process was performed for a total duration of 20 days. Any putative mutants recovered were isolated via streak dilution for three generations on MHA, prior to further characterisation.

[7] = test system: G. mellonella larvae; set-up: species or system Galleria mellonella; settings: in vivo
Protocol: All procedures of larvae rearing, injection and G. mellonella killing assays were conducted using validated methods. In each assay, ten larvae weighing between 280–300 mg each were randomly selected. Larvae with the previous melanisation of the cuticle were excluded from the experiments. All experiments were designed in at least four experimental and biological replicates.
Firstly, we evaluated the putative toxic effect of the peptides HG2 and HG4 in G. mellonella. […] After injection with peptides, the larvae were maintained at 37 °C in the dark. Phenotypic aspects such as melanisation and mobility of the larvae as well as survival were monitored every 24 for 96 h. Larvae not inoculated with AMPs were used as controls.

[8] = Pure lipid preference order from critical pressure of insertion; format: binding; settings: pure bacterial and eukaryotic lipids
Protocol: as §1

[9] = test system: E. coli K12; test: microbe, parasite or virus in culture; format: cell-based, Escherichia coli; settings: K12
Protocol: as §2

[10] = test system: K. pneumoniae 526903; test: microbe, parasite or virus in culture; format: cell-based, Klebsiella pneumoniae; settings: 526903
Protocol: as §2

[11] = test system: K. pneumoniae ATCC 700603; test: microbe, parasite or virus in culture; format: cell-based, Klebsiella pneumoniae; settings: ATCC 700603
Protocol: as §2

[12] = test system: K. pneumoniae NCTC 13442; test: microbe, parasite or virus in culture; format: cell-based, Klebsiella pneumoniae; settings: NCTC 13442
Protocol: as §2

[13] = test system: K. pneumoniae 518842; test: microbe, parasite or virus in culture; format: cell-based, Klebsiella pneumoniae; settings: 518842
Protocol: as §2

[14] = test system: MRSA USA300 cells; test: Transmission electron microscopy; format: cell-based, Staphylococcus aureus; settings: 3x MICs for 60 min
Source text: Transmission electron microscopy[14] was used to investigate the effects of HG2 and HG4 on MRSA USA300 cell morphology. […] They were then stained with 2% (w/v) uranyl acetate and Reynold’s lead citrate after which they were observed using a JEM1010 transmission electron microscope (JEOL Ltd, Tokyo, Japan) at 80 kV.

[15] = Peptide-lipid interaction and insertion, lipid monolayer; format: binding; settings: for Speed of insertion: initial surface pressure 30+/-0.5 mN/m; for Critical pressure of insertion πc: peptide 1 µg/mL
Protocol: Peptide–lipid interaction was measured using a lipid monolayer formed at the air:water interface with total lipid extracts and pure lipids. Total lipids were extracted from overnight cultures of MRSA or human erythrocytes using the Folch extraction procedure[14],[40]. Extracted total lipids were dried, re-solubilised in chloroform:methanol (2:1, v/v) and stored at −20 °C under nitrogen. Pure prokaryotic and eukaryotic lipids used were: cardiolipin, POPC (1-palmitoyl-2-oleoyl-glycero-3-phosphocholine), POPE (1-palmitoyl-2-oleoyl-sn-glycero-3-phosphoethanolamine) and POPG (1-palmitoyl-2-oleoyl-sn-glycero-3-phospho-(1’-rac-glycerol) (Avanti Polar Lipid). LTA (Lipoteichoic acid from S. aureus) and LPS (lipopolysaccharide from E. coli) (Invitrogen, UK) were also tested. Pure lipids were reconstituted in chloroform:methanol (2:1 v/v) at 1 mg/ml and stored at −20 °C under nitrogen. For peptide–lipid interaction assay, lipid monolayers at the air:water interface were formed by spreading total lipid extract or pure lipids at the surface of 800 µl of sterile PBS using a 50 µl Hamilton’s syringe. Lipids were added until the surface pressure reached the desired value. After 5–10 min of incubation allowing the evaporation of the solvent and stabilisation of the initial surface pressure, 8 µl of HG2 or HG4 diluted in sterile PBS at 100 µg/ml were injected into the 800 µl sub-phase of PBS under the lipid monolayer (pH 7.4, volume 800 µl) using a 10 µl Hamilton’s syringe giving a final concentration of peptide of 1 µg/ml, as preliminary experiments had shown that this concentration was optimal. The variation of the surface pressure caused by peptide insertion was then continuously monitored using a fully automated microtensiometer (µTROUGH SX, Kibron Inc, Finland) until it reached equilibrium (maximal surface pressure increase is usually obtained after 15–25 min). To reflect physiological situations, the initial surface pressure was fixed at 30 ± 0.5 mN/m in some experiments as this value corresponds to a lipid packing density theoretically equivalent to that of the outer leaflet of the eukaryotic and prokaryotic cell membrane. In other experiments, the critical pressure of insertion of HG2 or HG4 in the total lipid extracts and pure lipids was measured as follows[14],[56]. Briefly, in these experiments, the initial pressure of the lipid monolayer was set up at different values (between 10 and 30 mN/m) and the variation of pressure caused by the injection of the peptide was measured. […] All experiments were carried out in a controlled atmosphere at 20 ± 1 °C and data were analyzed using the Firmware 2.5 programme (Kibron Inc.). The accuracy of the system under our experimental conditions was determined to be ±0.25 mN/m for surface pressure measurements.

Compound | Speed of insertion [1] [mN/m/10 sec] | MIC [2] [µg/mL] | MIC [3] [µg/mL] | MIC [4] [µg/mL] | toxicity against reporter cell line (resazurin assay) [5] | fold increase in MIC during serial passage [6] | resistant mutants after serial passage [6] | larvae survival rate, uninfected larvae [7] [%] | toxic effect in G. mellonella [7] | order of preference for pure lipids (critical pressure of insertion) [8] | MIC [9] [µg/mL] | MIC [10] [µg/mL] | MIC [11] [µg/mL] | MIC [12] [µg/mL] | MIC [13] [µg/mL] | cell morphology by TEM [14] | Speed of insertion ([15]; Cardiolipin) [mN/m/10 sec] | Critical pressure of insertion πc ([15]; Cardiolipin) [mN/m] | Speed of insertion ([15]; PC) [mN/m/10 sec] | Critical pressure of insertion πc ([15]; PC) [mN/m] | further results
CC[C@H](C)[C@H](NC(=O)[C@H](CC(C)C)NC(=O)[C@H](CC(C)C)NC(=O)[C@H](CC(C)C)NC(=O)[C@H](CCCCN)NC(=O)[C@H](CCCCN)NC(=O)[C@@H](N)CCSC)C(=O)N[C@@H](CC(C)C)C(=O)N[C@@H](Cc1ccccc1)C(=O)N[C@H]1CSSC[C@@H](C(=O)N[C@@H](CCCCN)C(=O)N[C@@H](CCCCN)C(=O)N[C@@H](C)C(=O)N2CCC[C@H]2C(N)=O)NC(=O)CNC(=O)[C@H](C)NC(=O)[C@H](CC(C)C)NC(=O)[C@H](C)NC(=O)[C@H](CC(C)C)NC(=O)[C@H](C)NC(=O)[C@H](CC(C)C)NC1=O [HG2] (H-MKKLLLILFCLALALAGCKKAP-NH2; disulfide 10-18; N-terminus assumed) | 1.13 | 16 (≈ 6.79 µM) | 32 (≈ 13.6 µM) | 64 (≈ 27.2 µM) | no toxicity | 1–2 fold | did not produce resistant mutants | 100 | no toxic effect | PC > PG > LTA > Cardio > PE > LPS | 256 (≈ 109 µM) | >512 | >512 | 512 (≈ 217 µM) | 512 (≈ 217 µM) | changes in cell morphology and some cytoplasmic damage | 4.74 | 41.30 | 8.58 | 62.79 | Speed of insertion ([15]; PE): 1.89 mN/m/10 sec; Critical pressure of insertion πc ([15]; PE): 39.49 mN/m; Speed of insertion ([15]; PG): 3.70 mN/m/10 sec; Critical pressure of insertion πc ([15]; PG): 51.19 mN/m
CC[C@H](C)[C@H](NC(=O)[C@H](CC(C)C)NC(=O)[C@H](CC(C)C)NC(=O)[C@H](C)NC(=O)CNC(=O)CNC(=O)[C@@H](NC(=O)[C@@H](NC(=O)[C@H](CC(C)C)NC(=O)[C@H](C)NC(=O)[C@H](CC(C)C)NC(=O)CNC(=O)[C@H](CC(C)C)NC(=O)[C@@H](N)C(C)C)[C@@H](C)CC)C(C)C)C(=O)N[C@@H](CCCCN)C(=O)N[C@@H](CCCCN)C(=O)N[C@@H](CCCCN)C(=O)N[C@@H](CCC(N)=O)C(=O)N[C@@H](C)C(=O)N[C@@H](CCCCN)C(=O)N[C@@H](CO)C(N)=O [HG4] (H-VLGLALIVGGALLIKKKQAKS-NH2; N-terminus and C-terminus assumed) | 1.20 | 32 (≈ 15.1 µM) | 32 (≈ 15.1 µM) | 32 (≈ 15.1 µM) | no toxicity | 1–2 fold | did not produce resistant mutants | 100 | no toxic effect | PG > cardiolipin > LTA > LPS > PE > PC | 512 (≈ 242 µM) | 512 (≈ 242 µM) | >512 | 512 (≈ 242 µM) | 512 (≈ 242 µM) | changes in cell morphology and some cytoplasmic damage | 2.44 | 46.49 | 0.50 | 28.8 | Speed of insertion ([15]; PE): 0.20 mN/m/10 sec; Critical pressure of insertion πc ([15]; PE): 33.9 mN/m; Speed of insertion ([15]; PG): 2.48 mN/m/10 sec; Critical pressure of insertion πc ([15]; PG): 47.55 mN/m
